Assay [1] deals with T1, Lysine-specific demethylase 4C (Homo sapiens, UniProt Q9H3R0).
T1 sequence (Q9H3R0 whole entry): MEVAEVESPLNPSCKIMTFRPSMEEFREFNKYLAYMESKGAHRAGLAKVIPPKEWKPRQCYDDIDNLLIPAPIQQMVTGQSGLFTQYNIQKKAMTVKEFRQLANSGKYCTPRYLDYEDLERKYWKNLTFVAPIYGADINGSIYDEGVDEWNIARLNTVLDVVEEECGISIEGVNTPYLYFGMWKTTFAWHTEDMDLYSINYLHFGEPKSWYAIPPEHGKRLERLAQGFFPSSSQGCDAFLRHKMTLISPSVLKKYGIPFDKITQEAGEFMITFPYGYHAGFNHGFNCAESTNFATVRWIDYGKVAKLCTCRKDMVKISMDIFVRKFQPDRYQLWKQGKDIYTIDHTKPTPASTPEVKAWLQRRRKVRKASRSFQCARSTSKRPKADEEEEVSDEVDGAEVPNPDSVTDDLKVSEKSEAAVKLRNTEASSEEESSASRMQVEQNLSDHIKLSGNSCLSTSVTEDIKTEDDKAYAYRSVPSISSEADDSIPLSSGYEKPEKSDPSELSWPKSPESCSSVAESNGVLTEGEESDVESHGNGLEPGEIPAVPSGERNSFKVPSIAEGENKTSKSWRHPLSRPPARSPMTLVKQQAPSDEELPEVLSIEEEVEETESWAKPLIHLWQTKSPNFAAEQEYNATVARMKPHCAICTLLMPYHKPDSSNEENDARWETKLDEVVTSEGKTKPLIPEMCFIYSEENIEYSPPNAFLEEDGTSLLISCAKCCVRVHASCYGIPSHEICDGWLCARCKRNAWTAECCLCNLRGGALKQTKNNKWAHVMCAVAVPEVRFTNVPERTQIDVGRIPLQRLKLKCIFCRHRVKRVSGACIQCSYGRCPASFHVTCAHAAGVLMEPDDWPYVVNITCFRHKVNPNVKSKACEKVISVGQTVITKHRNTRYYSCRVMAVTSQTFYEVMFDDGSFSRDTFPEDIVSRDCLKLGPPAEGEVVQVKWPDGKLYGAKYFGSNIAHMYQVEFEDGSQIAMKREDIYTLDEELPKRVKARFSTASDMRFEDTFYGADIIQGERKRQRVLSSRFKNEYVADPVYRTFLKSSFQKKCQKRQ
Nature of the assay: Inhibition of human KDM4C (1 to 347 residues) catalytic domain measured formaldehyde dehydrogenase (FDH)-coupled fluorescence assay.

In assay [2] the target is T2, Lysine-specific demethylase 4D (Homo sapiens, UniProt Q6B0I6).
T2 sequence (Q6B0I6 whole entry): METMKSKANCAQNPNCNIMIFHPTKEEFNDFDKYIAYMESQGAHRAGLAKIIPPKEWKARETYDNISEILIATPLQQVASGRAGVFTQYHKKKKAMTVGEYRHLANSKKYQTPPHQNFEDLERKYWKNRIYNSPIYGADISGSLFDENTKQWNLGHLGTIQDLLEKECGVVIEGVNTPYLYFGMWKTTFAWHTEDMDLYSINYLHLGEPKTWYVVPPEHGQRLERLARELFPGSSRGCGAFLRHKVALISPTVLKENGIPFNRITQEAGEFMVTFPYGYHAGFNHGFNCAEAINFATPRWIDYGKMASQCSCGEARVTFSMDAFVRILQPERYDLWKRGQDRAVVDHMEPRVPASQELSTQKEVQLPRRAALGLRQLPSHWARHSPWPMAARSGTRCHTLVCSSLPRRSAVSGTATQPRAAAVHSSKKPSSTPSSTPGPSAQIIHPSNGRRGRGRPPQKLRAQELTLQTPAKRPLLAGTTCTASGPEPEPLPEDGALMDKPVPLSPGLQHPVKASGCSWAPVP
Nature of the assay: Inhibition of human KDM4D (1 to 378 residues) catalytic domain measured formaldehyde dehydrogenase (FDH)-coupled fluorescence assay.

pIC50: −log10 of the molar value.

The values below come from ChEMBL document CHEMBL5137065, “Recent Advances with KDM4 Inhibitors and Potential Applications” (J Med Chem, 2022).

For `COC(=O)Cc1cc(O)n(-c2nc3ccccc3[nH]2)n1`, the pIC50 in assay [1] and in assay [2] was 5.40 in each case.
